Laboratory results as given in patent US20210071183A1, “ZINC ASSOCIATED TREATMENT FOR AND DIAGNOSIS OF CACHEXIA” (THE TRUSTEES OF COLUMBIA UNIVERSITY IN THE CITY OF NEW YORK, priority 2018, published 2021).
Where a SMILES comes first, the peptide text is derived from it. The star is where a group is joined. Cbz = O=C(OCc1ccccc1)*

Experiments:
4T1 tumor-bearing mice = assay: Zinc chelator injection in 4T1 tumor-bearing mice; type: in vivo, mouse; conditions: 150 mg/kg body weight daily from 7 days post-tumor cell injection, 4 weeks
Procedure: The effects of zinc chelator injection were analyzed using healthy or C26m2 tumor bearing mice. Excess zinc supplementation exacerbates muscle wasting, while zinc chelation reduces muscle wasting in tumor-bearing mice. […] (A-B) Healthy or C26m2 tumor bearing mice of the indicated genotypes (Zip14 WT or KO) were either treated with regular or zinc-enriched water (25 mM) from the day of tumor cell injection and muscles were collected after […]. Body weight analysis (A) and relative MuRF1/MAFBx mRNA expression levels indicative of muscle wasting (B) are shown. C. Mice were injected with 4T1 tumor cells and were divided into 3 groups, one was provided with regular diet with 86 ppm zinc, second group with 1000 ppm zinc-supplemented diet (high zinc diet) and third group with regular diet with 86 ppm zinc but with zinc chelator injected daily with Sodium diethyldithiocarbamate trihydrate (DEDTC) at 150 mg/kg body weight injected 7 days post-tumor cell injection. Mice were sacrificed after 4 weeks post-tumor cell injection. In all experiments, n=3-8 per group. ns, not significant. *p≤0.05, **p≤0.01, ***p≤0.001 and ****p≤0.0001.

Zip14 expression [1] = assay: Zip14 qRT-PCR in human primary skeletal myoblasts treated with cytokines and signaling pathway inhibitors; type: cell-based; conditions: human primary muscle cells; for Zip14 expression after recombinant cytokine treatment: TNFα 50 ng/ml, TGFβ 10 ng/ml
Procedure: (§1) Treatment with cytokines and signaling pathway inhibitors: Murine C2C12 myoblasts and human primary skeletal myoblasts were serum-starved overnight, and then treated with or without inhibitors of the TGFβ/Smad, […] pathways, which are SB431542 (purchased from Thermo Fisher), CC401 (purchased from Thermo Fisher) and BAY 11-7085 (purchased from Enzo), respectively, followed by treatment with recombinant cytokines purchased from R&D Systems (recombinant mouse TNFα and TGFβ1 at 50 ng/ml and 10 ng/ml, respectively, for C2C12, recombinant human TNFα and TGFβ1 at 50 ng/ml and 10 ng/ml, respectively, for human primary skeletal myoblasts). Cells were pretreated with either vehicle (DMSO) control, or 10 μM of the respective pathway inhibitors for 1 hour, and then treated with TGFβ1 for 9 hours or TNFα for 3 hours before harvest. Cells with different treatments were harvested together for subsequent analysis.

Zip14 expression [2] = assay: Zip14 qRT-PCR in murine C2C12 myoblasts treated with cytokines and signaling pathway inhibitors; type: cell-based, mouse; conditions: for Zip14 expression after recombinant cytokine treatment: murine C2C12 myoblasts, TNFα 50 ng/ml, TGFβ 10 ng/ml
Procedure: as §1

[3] = test system: myosin heavy chain (MyHC); assay: Zinc and MG132 treatment of differentiated C2C12 muscle cells (immunoblot of myofibrillar proteins); type: cell-based, mouse
Procedure: (§2) Zinc and MG132 treatment of muscle cells: 3-day differentiated C2C12 cells were cultured with 50 μM ZnCI2 in differentiation medium for 24 hours. Cells were then used for immunofluorescence staining, gene expression analysis and immunoblot analysis. For MG-132 (benzyloxycarbonylleucyl-leucyl-leucine aldehyde, a proteasome inhibitor) treatment, 3-day differentiated C2C12 cells expressing Zip14 (Adeno-Zip14) were treated with 50 μM ZnCI2 for 24 hours, and then treated with either vehicle (DMSO) or MG132 (50 μM) for 3 hours prior to harvest for immunoblot analysis.
Subcellular fractionation of differentiated C2C12 muscle cells: Fractionation of soluble and myofibrillar components was performed. Differentiated C2C12 muscle cells were collected in cold lysis buffer (20 mM of Tris-HCl pH 7.2, 5 mM of EGTA, 100 mM of KCl, 1% Triton X-100, and 1× protease and phosphatase inhibitor cocktail), and lysed by gentle agitation at 4° C. for 1 h. After centrifugation at 3,000×g for 30 mins at 4° C., the cytosolic fraction (supernatant) was collected and stored in −80° C. The pellet (myofibrils) was washed twice with wash buffer (20 mM of Tris-HCl, pH 7.2, 100 mM of KCl, and 1 mM of DTT). After centrifugation at 3,000×g for 10 mins at 4° C., myofibrillar fraction was extracted in ice-cold extraction buffer (0.6 M of KCl, 1% Triton X-100, 2 mM of EDTA, 1 mM of DTT and 1× protease and phosphatase inhibitor cocktail) with shaking at 4° C. The purified myofibrillar fraction was collected after centrifugation for 3,000×g at 4° C. and stored in −80° C. until further use.

[4] = test system: C26m2 tumor-bearing Zip14 WT and KO mice; assay: Zinc-supplemented water treatment for mice; type: in vivo, mouse
Procedure: (§3) Zinc-supplemented water treatment for mice: ZnS04 solution was purchased from Sigma. Zip14 WT and KO mice were given either regular water or zinc-supplemented drinking water (25 mM ZnS04 in their drinking water). Zinc water was started from the day of tumor injection in the tumor-bearing group and in matched uninjected controls, which continued until the animals were euthanized at 15 days. Tumors were not resected because cachectic symptoms started to develop early and were visible between 8-10 days in the tumor-bearing Zip14 WT group of mice on zinc-enriched water.

[5] = Food and water intake, behavioral coordination, liver and kidney function with zinc-supplemented water; type: in vivo, mouse; conditions: C26m2 tumor-bearing mice with excess zinc supplementation
Procedure: as §3
Behavioral coordination tests in mice: Rotamex-5 (Columbus Instruments) with a rod diameter of 3 cm, was used for testing coordination in mice. In this setup, automatic fall detection is implemented within each lane by a series of photocells placed above the rotating rod. The speed of the rotating rod is programmed for either constant or accelerated modes. […] Latency to fall is detected with 0.1 second temporal resolution. […] For each mouse, an average of 3 runs are recorded, with 5 minutes rest between each run. The speed that the rod is spinning at when the mouse falls is measured in RPMs. The time it takes for the mouse to fall is measured in seconds. […] When the mice fall off the speed of the rod and amount of time the mouse was on the rod are recorded. […]

[6] = test system: Zip14-expressing myoblasts; assay: Muscle differentiation assays with zinc; type: cell-based, mouse
Procedure: Adenoviral infection: C2C12 cells or mouse primary myoblasts were cultured overnight. C2C12 cells were infected with adenovirus expressing either GFP (green fluorescent protein) control (Adeno-GFP) or mouse Zip14 (Adeno-Zip14, purchased from Vector Biolabs). Primary myoblasts were infected with adenovirus expressing either GFP control (Adeno-GFP) or mouse Zip14 (Adeno-Zip14).
Muscle differentiation assays: Differentiation was initiated after adenoviral infection by switching the growth medium to differentiation medium (DMEM containing 2% horse serum and 5 μg/ml of insulin for C2C12 cells; DMEM containing 2% horse serum without insulin for primary myoblasts) the day after infection. Differentiation medium was changed at designated time-points.
as §2

C2C12 cells = assay: Cell viability assay (MTS, cleaved caspase-3); type: cell-based; conditions: Zip14-expressing cells; 50 μM ZnCl2 24 h
Procedure: Cell viability assay: Viability of C2C12 cells was determined by MTS assay (a cell proliferation assay based on a colorimetric method for quantification of viable cells in proliferation and cytotoxicity assay) using CellTiter 96® Aqueous One Solution Cell Proliferation Assay kit (purchased from Promega) containing tetrazolium compound. C2C12 cells infected with Adeno-GFP control or Adeno-Zip14 were plated in growth media and differentiated. Cells were treated with 50 μM of ZnCl2 for 24 h. Cell viability was measured by adding 100 μl of growth medium without phenol red to each well after aspirating media from the wells. 20 μl of CellTiter 96 AGueous One Solution Reagent was added to each well. After 1 hour of incubation at 37° C. in CO2 incubator, the amount of soluble formazan was determined by absorbance at 450 nm. Undifferentiated and differentiated C2C12 cells were collected for immunoblot analysis probing for cleaved-caspase-3 expression to assess cell-death. C2C12 cells treated with the indicated doses of doxorubicin (doxo) (purchased from Sigma) served as positive control for both types of viability assays.

[7] = Zip14-expressing myotubes treated with zinc (50 μM) for 24 hours
[8] = Zip14-wild-type tumor-bearing mice (C26m2), 25 mM ZnSO4 drinking water

CCN(CC)C(=S)[S-].O.O.O.[Na+] [DEDTC, Sodium diethyldithiocarbamate trihydrate]
muscle wasting (4T1 tumor-bearing mice): reduces

TNFα
Zip14 expression after recombinant cytokine treatment (Zip14 expression [1]): significantly induced
Zip14 expression after recombinant cytokine treatment (Zip14 expression [2]): significantly induced

[Zn] [zinc]
MyHC protein [3, 7]: striking loss
skeletal actin, tropomyosin, troponin, desmin and myosin light chain (MyLC) protein [3, 7]: remained unchanged
body weight loss [4, 8]: substantial acceleration
muscle atrophy [4, 8]: increase
growth kinetics ([4]; absence of tumors, Zip14-wild-type and knockout mice, 25 mM ZnSO4 drinking water): no detrimental effect
muscle wasting ([4]; tumor-bearing mice, zinc-enriched water (25 mM) or 1000 ppm zinc-supplemented diet): exacerbates
food or water intake, behavior, liver or kidney function [5]: No changes
differentiation of myoblasts (MyHC expression, morphology) ([6]; Zip14-expressing C2C12 and primary myoblasts, 50 μM ZnCl2): selectively blocked
MyoD, Mef2c, and Myf5 transcription ([6]; Zip14-expressing C2C12 myoblasts, 50 μM ZnCl2 24 hours, qRT-PCR): transcriptional repression
viability (C2C12 cells): no loss

TGFβ: recombinant mouse or human TGFβ1 cytokine from R&D Systems
Zip14 expression after recombinant cytokine treatment (Zip14 expression [1]): significantly induced
Zip14 expression after recombinant cytokine treatment (Zip14 expression [2]): significantly induced

CC(C)C[C@@H](C=O)NC(=O)[C@H](CC(C)C)NC(=O)[C@H](CC(C)C)NC(=O)OCc1ccccc1 [MG132, benzyloxycarbonylleucyl-leucyl-leucine aldehyde, reference compound] (Cbz-Leu-Leu-Leu-aldehyde)
MyHC loss ([3]; Zip14-expressing 3-day differentiated C2C12, 50 μM ZnCl2 24 h, MG132 50 μM 3 hours prior to harvest): could be blocked

NC(=O)c1ccc(-c2nc(-c3ccc4c(c3)OCO4)c(-c3ccccn3)[nH]2)cc1 [SB431542]
Zip14 expression (TGFβ-induced) (Zip14 expression [1]; TGFβ 10 ng/ml 9 hours, 10 μM inhibitor pretreated 1 hour, qRT-PCR): blocked
Zip14 expression (TGFβ-induced) (Zip14 expression [2]; murine C2C12 cells, TGFβ 10 ng/ml 9 hours, 10 μM inhibitor pretreated 1 hour, qRT-PCR): blocked

CC(C)(C)c1ccc(S(=O)(=O)/C=C/C#N)cc1 [Bay11-7085]
Zip14 expression (TNFα-induced) (Zip14 expression [1]; TNFα 50 ng/ml 3 hours, 10 μM inhibitor pretreated 1 hour, qRT-PCR): blocked
Zip14 expression (TNFα-induced) (Zip14 expression [2]; murine C2C12 cells, TNFα 50 ng/ml 3 hours, 10 μM inhibitor pretreated 1 hour, qRT-PCR): blocked
